Reference: patent US11173177B2, “Compounds for treatment of lipoprotein metabolism disorders” (Aarhus Universitet, priority 2016, dated 2021)
Entries after “also recorded” stand apart in the source; their conditions may differ. Each block holds one molecule with its values, some of them ahead of it.

Columns and labels:
PCSK9 [1] = experiment: Heparin-sepharose binding assay (free PCSK9 by ELISA); parameters: species or system human; settings: 500-250 μg/ml, PCSK9 1 μg/ml, over night 4° C.
Description: Compound (X) inhibition of PCSK9 binding to Heparin/Heparan sulfate was tested in a Heparin-sepharose binding assay. Heparin-sepharose beads (2 μl) were incubated with PCSK9 (1 μg/ml) with increasing concentrations of compound (X) (0-500 μg/ml) in a total volume of 150 μl 10 mM NaH2PO4. After over night rotation at 4° C., beads were pelleted and the concentration of non-precipitated PCSK9 (free PCSK9) in supernatant was evaluated by ELISA. The concentration of free PCSK9 in each sample was normalised to the PCSK9 level in a sample without Heparin-sepharose beads (input control). As positive control was included a sample with soluble heparin (5 mg/ml) (FIG. 16 A).
Sucrose octasulfate (FIG. 21A) inhibition of PCSK9 binding to Heparin/Heparan sulfate was tested in a Heparin-sepharose binding assay. Heparin-sepharose beads (2 μl) were incubated with PCSK9 (1 μg/ml) and increasing concentrations of sucrose octasulfate (0-500 μg/ml) in a total volume of 150 μl 10 mM NaH2PO4. After over night rotation at 4° C., beads were pelleted and the concentration of non-precipitated PCSK9 (free PCSK9) in supernatant was evaluated by ELISA). Percent free PCSK9 was calculated with respect to the PCSK9 concentration in a sample without Heparin-sepharose beads (input control) (FIG. 21B).

LDLR in HepG2 cells [2] = experiment: LDLR levels in HepG2 cells by Western blotting and densitometry; assay type: cell-based, human; settings: for cellular LDLR, plateau compared to control: dose-dependent increase
Description: In the heparin mimetic class of modified polysaccharides compounds dextran sulfate (FIG. 9 A-B) and pentosan (FIG. 9 D-E) were tested in a HepG2 based in vitro cell assay. After overnight incubation LDLR levels were evaluated by Western blotting showing a concentration dependent increase of LDLR upon treatment with dextran sulfate (0-200 μg/ml) with up to 3-fold up regulation of LDLR.
Control cells were incubated without additives (negative control) or 500 μg/ml heparin (positive control). LDLR levels were calculated with respect to the level found in lysate of HepG2 cells incubated without additives.
HepG2 cells were incubated with 0-200 μg/ml of heterogeneously sulfated hexamer or 18-mer oligosaccharides containing on average 1,3 sulfates per disaccharide. After over night incubation cells were harvested and the cellular level of LDLR was analyzed by Western blotting (FIG. 17 A) and quantified by densitometry (FIG. 17 B).

PCSK9 [3] = experiment: Microscale Thermophoresis (MST) binding to PCSK9; parameters: species or system human; settings: 100 nM labelled PCSK9, PBS+0.05% Tween-20; for Kd: read-out: KD (affinity for PCSK9, MST)
Description: Equilibrium binding affinities between PCSK9 and ligands (suramin, dextran sulfate 5000, dextran 5000, pentosan sulfate and S-dC-36) were assessed using Microscale Thermophoresis (MST) (Jerabek-Willemsen et al., 2011). PCSK9 was labeled using the MO-L003 Monolith Blue-NHS labeling kit (NanoTemper Technologies) and a labeling efficiency of 1:1 molar ratio of protein to dye was achieved. PCSK9 was applied at a final concentration of 100 nM. The unlabeled binding partner was titrated in 1:1 dilutions (in PBS+0.05% Tween-20) where the highest concentrations were 15.4 mM for suramin, 2.3 mM for dextran sulfate 5000, 2.3 mM for dextran 5000, 16.3 mM for pentosan sulfate and 250 μM for S-dC-36. MST measurements were performed in standard-treated capillaries (NanoTemper Technologies) on a Monolith NT.115 instrument (NanoTemper Technologies) using 20% LED and 80% MST power. Laser on and off times were 5 s and 35 s, respectively. Negative controls were performed using 100 nM of labelled PCSK9 in MST buffer in all 16 capillaries under the same conditions as mentioned above. Binding curves were obtained from the temperature-jump phase at 80% MST power for suramin, dextran sulfate 5000 and S-dC-36; and from the thermophoresis+temperature-jump phase at 80% MST power for pentosan sulfate. For each binding partner, the sigmoidal dose-response curves were fitted with GraphPad Prism 6 to yield an average KD value.

[4] = oral dose; cited from earlier work
PCSK9 [5] = experiment: BIACORE analysis of PCSK9 binding to heparin-albumin or albumin sensor chips; parameters: species or system human
Description: BIACORE analysis using sensor chips coupled with either albumin (Sigma A4503) or heparin-albumin (Sigma H0403) were used to evaluate the interaction between PCSK9 and heparin. […] An interference assay using BIACORE analysis was implemented to assess the binding between compound (X) and PCSK9. Solutions of 100 nM PCSK9 was incubated with increasing concentrations of compound (X) (0 nM, 10 nM, 100 nM, 1 μM and 10 μM), the solutions were then infused over the sensor chip coupled with heparin-albumin.

liver LDLR = experiment: Liver LDLR levels in mice after intravenous PCSK9 injection (Western blot); assay type: in vivo
Description: To test the effect of enzymatic removal of heparan sulfate GAGs on PCSK9 activity in vivo 10-12 week-old male BALB6/cJRj mice were infused with heparinase I (30 U) administered through a tail vein catheter 5 min prior injection of PCSK9 (10 μg). In control mice the heparinase injection and/or the PCSK9 injection were replaced with an injection of 0.9% saline. During heparinase infusion, mice were lightly anaesthetized with isoflurane continuously administered through a mask.
Mice (BALB6/cJRj) were subjected to a single intravenous administration (tail vein) of 10 μg human recombinant PCSK9 alone or in combination with heparin (50 U). One hour post injection mice were sacrificed and liver tissues were collected.
Mice (BALB6/cJRj) were subjected to a single intravenous (tail vein) administration of 3.2 μg compound (X) 60 minutes prior injection with PCSK9 (10 μg). PCSK9 induced degradation of liver LDLR was assessed 60 min post PCSK9 injection by Western blotting and quantified by densitometry (FIG. 16 C). Control mice were injected with NaCl or control inhibitor Evolocumab (200 μg), commercially available PCSK9 inhibitory monoclonal antibody (Amgen). LDLR levels were calculated with respect to LDLR level in mice injected with NaCl alone.

HepG2 cells = experiment: Uptake of Bodipy-labeled LDL particles in HepG2 cells; assay type: cell-based, human; settings: suramin 200 μg/ml overnight, then 4 hours 10 ng/ml Bodipy-LDL
Description: FIG. 12: Bar graphs showing the relative fluorescence signal in HepG2 cells after overnight incubation with suramin (200 μg/ml) following 4 hours incubation with 10 ng/ml LDL particles labeled with fluorescence dye Bodipy. Inhibition of PCSK9 with suramin increases the uptake of LDL two-fold.

LDLR in HepG2 cells [6] = experiment: LDLR levels in HepG2 cells by Western blotting and densitometry; assay type: cell-based, human
cell surface PCSK9 = experiment: Surface PCSK9 immunostaining of non-permeabilized HepG2 cells stably expressing PCSK9; assay type: cell-based, human; settings: heparinase I 1 h at 37° C.
Description: We speculated that HSPG might be involved in the capture of PCSK9. Thus, we treated human hepatocyte-derived HepG2 cells stably expressing PCSK9 with heparinase I. The enzyme heparinase I cleaves heparan sulfate GAG chains at the 1,4 O-linkage between uronic acid and N-acetyl-D-glucosamine, thereby removing cell surface heparan sulfate chains.
HepG2 cells stably transfected with PCSK9 were seeded at 50.000 cells per coverslip and incubated overnight before addition of heparinase I (Sigma Aldrich/H2519) in PBS (0,0002 UN/ml) or PBS alone. Cells were incubated for 1 h. at 37° C., before fixation in 4% paraformaldehyd and immunostaining of non-permeabilized cells with primary and secondary antibodies. Nuclei were visualized with Hoechst dye (Sigma Aldrich). Images were acquired on a Zeiss LSM780.

Molecule: O=S(=O)(O)OC[C@H]1O[C@@](COS(=O)(=O)O)(O[C@H]2O[C@H](COS(=O)(=O)O)[C@@H](OS(=O)(=O)O)[C@H](OS(=O)(=O)O)[C@H]2OS(=O)(=O)O)[C@@H](OS(=O)(=O)O)[C@@H]1OS(=O)(=O)O [Sucrose octasulfate]
inhibition of PCSK9 precipitation with Heparin-sepharose (PCSK9 [1]): inhibited PCSK9 precipitation with Heparin-sepharose as well as 5 mg/ml soluble heparin

Molecule: Cc1ccc(C(=O)Nc2ccc(S(=O)(=O)O)c3cc(S(=O)(=O)O)cc(S(=O)(=O)O)c23)cc1NC(=O)c1cccc(NC(=O)Nc2cccc(C(=O)Nc3cc(C(=O)Nc4ccc(S(=O)(=O)O)c5cc(S(=O)(=O)O)cc(S(=O)(=O)O)c45)ccc3C)c2)c1 [suramin]
Kd (PCSK9 [3]): 190 µM | level of liver LDLR compared to mice injected with PCSK9 alone (liver LDLR; co-injected with PCSK9 (10 μg), heparin 50 U or suramin 300 μg, 1 hour): significantly higher level of LDLR | uptake of fluorescently labelled LDL particles (HepG2 cells): increased cellular uptake of fluorescently labelled LDL particles; also recorded: two-fold | LDLR level compared with cells incubated with statins (LDLR in HepG2 cells [6]; 100 μM, 24 and 48 hours, vs mevastatin and simvastatin): higher level of LDLR | increase in LDLR (LDLR in HepG2 cells [6]; suramin 0-200 μg/ml, 24 hour): up to fifteen-fold increase in LDLR

Molecule: phosphorothioate oligodeoxycytidine [S-dC-36]
cellular LDLR levels / PCSK9 inhibitory effect (LDLR in HepG2 cells [6]; 0-5.0 μM, 24 hour): potent inhibitory effects; also recorded: concentration dependent increase in cellular receptor levels

B1: Evolocumab: commercially available PCSK9 inhibitory monoclonal antibody (Amgen) (antibody, chains of the INN, looked up, V domains shown)
VH: EVQLVQSGAEVKKPGASVKVSCKASGYTLTSYGISWVRQAPGQGLEWMGWVSFYNGNTNYAQKLQGRGTMTTDPSTSTAYMELRSLRSDDTAVYYCARGYGMDVWGQGTTVTVSS
VL: ESALTQPASVSGSPGQSITISCTGTSSDVGGYNSVSWYQQHPGKAPKLMIYEVSNRPSGVSNRFSGSKSGNTASLTISGLQAEDEADYYCNSYTSTSMVFGGGTKLTVL
decrease of liver LDLR level after PCSK9 injection (liver LDLR; inhibitor i.v. 60 min prior PCSK9 (10 μg), compound (X) 0.13 mg/kg, Evolocumab 8 mg/kg, PCSK9 without inhibitor: 50% decrease): no decrease was observed

B2: heparinase I: enzyme that cleaves heparan sulfate GAG chains (Sigma Aldrich/H2519) (protein, UniProt Q05819 22-384, looked up)
Heparin lyase I: QQKKSGNIPYRVNVQADSAKQKAIIDNKWVAVGINKPYALQYDDKLRFNGKPSYRFELKAEDNSLEGYAAGETKGRTELSYSYATTNDFKKFPPSVYQNAQKLKTVYHYGKGICEQGSSRSYTFSVYIPSSFPDNATTIFAQWHGAPSRTLVATPEGEIKTLSIEEFLALYDRMIFKKNIAHDKVEKKDKDGKITYVAGKPNGWKVEQGGYPTLAFGFSKGYFYIKANSDRQWLTDKADRNNANPENSEVMKPYSSEYKTSTIAYKMPFAQFPKDCWITFDVAIDWTKYGKEANTILKPGKLDVMMTYTKNKKPQKAHIVNQQEILIGRNDDDGYYFKFGIYRVGNSTVPVTYNLSGYSETAR
PCSK9 induced degradation of liver LDLR (liver LDLR; heparinase I (30 U) infused 5 min prior PCSK9 (10 μg), 1 hour): completely protected; also recorded: completely inhibits | intensity of surface PCSK9 staining (cell surface PCSK9): marked decrease in the intensity of surface PCSK9 staining

Continued, in another order:

Kd (PCSK9 [3]): 180 µM
Molecule: dextran sulfate
up regulation of LDLR (LDLR in HepG2 cells [2]; 0-200 μg/ml, overnight): up to 3 fold | cellular level of LDLR (LDLR in HepG2 cells [2]; 200 μg/ml, 24 hour): potently increase the cellular level of LDLR | cellular LDLR, plateau compared to control (LDLR in HepG2 cells [2]): around 400%

Kd (PCSK9 [3]): 381 µM
Molecule: pentosan sulfate
increase in LDLR (LDLR in HepG2 cells [2]; 50-200 μg/ml, 24 hour / overnight): 4 fold | cellular LDLR, plateau compared to control (LDLR in HepG2 cells [2]): around 400% | absorption from the digestive tract, median time after ingestion [4]: 2 h

KD (affinity for PCSK9, MST) (PCSK9 [3]): no affinity for PCSK9
Molecule: dextran

PCSK9 binding to control sensor chip (PCSK9 [5]; sensor chip coupled with albumin): no binding was observed
Molecule: albumin: albumin (Sigma A4503) control sensor chip

Kd (PCSK9 [5]; Example 20 text, read-out: affinity constant of PCSK9 binding): 0.0007 µM
Molecule: heparin-albumin: heparin-albumin (Sigma H0403) coupled to sensor chip
